Measurements taken from patent publication US6589747B2, “Method for identifying compounds that modulate the interaction of amyloid beta or its aggregates with a voltage gated sodium channel” (priority 1999, dated 2003).

Key:
[1] = system: fast inward sodium channel (TTX-sensitive) of isolated rat hippocampal neurons; assay: Voltage-clamp recording of fast inward sodium current (INa); assay type: cell-based
[2] = system: fast inward sodium channels (TTX-sensitive) of rat hippocampal neurons; assay: Aggregation time course versus impact on inward sodium current and other neuronal parameters; assay type: cell-based
[3] = system: isolated adult rat cortical and hippocampal neurons; assay: Current-clamp recording of resting membrane potential and action potentials of single neurons (suction pipette); assay type: cell-based
Description: (§1) For all studies as described herein, single neurons freshly dissociated from adult rats (Chad et al, In, Cellular Neurobiology, Ed. J. Chad and H. Wheal, Oxford University Press (1991)) were examined using the suction pipette method (Lee et al., J. Neurosc. Methods, 2; 51-78 (1980)) under current- or voltage-clamp, with use of an Axopatch 200 Amplifier (Axon Instruments, Foster City, Calif.). Amyloid β1-40 was obtained from Polypeptide Laboratories, Torrance, Calif., or from Bachem Biochemica, Heidelberg, Germany.
Shaken aggregation assays (i.e., as in Examples 1-4) were performed as described previously (e.g., Findeis et al., Biochemistry, 38, 6791-6800 (1999)). This aggregation performed prior to use of the aggregated amyloid for contacting cells was done in the same media as the cells were contained, i.e., Hank's Balanced Salt Solution. Aggregation of amyloid for kinetic studies (i.e., as in Example 5), was done in a buffer composed of 10 mM phosphate, 100 mM NaCl, pH 7.4. […] At given times, the turbidities of the reaction mixture were read by measuring light scattering at 405 nm in a Molecular Devices (Menlo Park, Calif.) Vmax Microplate Reader. […]
In current-clamp, the resting membrane potential and action potentials of single neurons were continuously monitored for at least 10-20 minutes until the neuronal activity became stable. […]

[4] = system: potassium ion channel of isolated neurons; assay: Voltage-clamp recording of potassium currents; assay type: cell-based, rat
Description: as §1
In this experiment, the effect of amyloid β 1-40 on the potassium ion channel was studied using the methods described in Experiment 2 for the sodium channel.
In voltage-clamp, within the first 2-5 minutes, in some cells the peptide induced an outward holding current measuring about 10-50 pA, but this small current was enough to hyperpolarize the resting membrane potential from −50 mV to −90 mV. In other cells, the peptide instead caused a gradual depolarization to about −40 mV due to a slight inhibition of the outward holding current. In all cells, amyloid β 1-40 blocked the delayed outward potassium current by about 30-40% at all step potentials.

[5] = system: calcium ion channel of isolated hippocampal neurons; assay: Voltage-clamp recording of neuronal inward calcium current; assay type: cell-based, rat; details: 50 μM amyloid β 1-40, about 70 minutes shake-induced aggregation
Description: as §1
In this experiment, the effect of amyloid β 1-40 on the calcium ion channel was studied using the methods described in Experiment 2 for the sodium channel.

`NC1=N[C@H](O)[C@H]2[C@H]3O[C@]4(O)O[C@@H]([C@@H](O)[C@@]2(N1)[C@@H]4O)[C@]3(O)CO` [tetrodotoxin (TTX), tetrodotoxin] was tested. Which “sensitivity of fast inward sodium current to blocker” value [1] did it give?
Its value is “sensitive”.

With “low molecular weight peptide aggregates of amyloid β 1-40 monomer: Low molecular weight aggregates (e.g. tetramer) of amyloid β 1-40” as the compound, how does the “relative potency for inhibiting the fast inward sodium channels” value ([2]; compared with monomers or polymers) read?
Its value is “higher potency”.

“Monomers of amyloid β 1-40: Non-aggregated monomeric form of amyloid β 1-40” was tested. Which “impact on the parameters assessed (resting potential, action potential, sodium, calcium, potassium channels)” value ([2]; monomeric form, before aggregation) did it give?
The value was “did not show significant impact”.

For amyloid β 1-40, which “time of shake-induced aggregation giving peak impact on sodium channel activity (% decrease in INa)” value ([2]; 50 μM amyloid β 1-40) is on record?
The value was 60 to 80 min.

What about the “inhibition level of the fast inward sodium channels after saturation of peptide aggregation” value ([2]; after reaching saturation of aggregation, mean values of four experiments) of the same compound?
The value was over 50%.

What about the “reversibility of effect on fast inward sodium current on wash out” value ([1]; 50 μM amyloid β 1-40, about 90 and 120 minutes shake-induced aggregation, hippocampal neuron) of the same compound?
The value was “cannot wash out”.

And the “block of fast inward sodium current” value ([1]; 10-50 μM amyloid β 1-40 aggregated for various times, in about 5-30 minutes, holding potential −50 to −80 mV)?
Its value is at most 90%.

What about the “effect on action potentials” value ([3]; 11.5 μM amyloid β 1-40 added to cortical and hippocampal neurons) of the same compound?
Its value is “abrogation of action potentials”.

And the “time of peptide exposure until action potentials disappeared altogether in most neurons” value ([3]; 10-50 μM amyloid β 1-40 preaggregated for different times)?
Its value is 20 to 30 min.

What about the “block of delayed outward potassium current” value ([4]; all cells, at all step potentials) of the same compound?
Its value is 30-40%.

What about the “resting membrane potential after hyperpolarization (from −50 mV)” value ([4]; cells in which an outward holding current was induced) of the same compound?
The value was −90 mV.

What about the “membrane potential after gradual depolarization” value ([4]; other cells, slight inhibition of the outward holding current) of the same compound?
Its value is “about −40 mV”.

What about the “induced outward holding current” value ([4]; voltage-clamp, within the first 2-5 minutes, in some cells) of the same compound?
The value was 10-50 pA.

What about the “effect on neuronal inward calcium currents” value [5] of the same compound?
The value was “depress neuronal inward calcium currents”.
